Laboratory results from US8853238B2, “Fused heterocyclic compound and use thereof for pest control” (Sumitomo Chemical Company, Limited, priority 2010, dated 2014).

Tests used:
Assay type in all cases: in vivo
[1] = system: Nilaparvata lugens; experiment: Test Example 4: spray on rice seedling, release of Nilaparvata lugens larvae; conditions: 144 h, read-out: Control value
[2] = system: Aphis gossypii; experiment: Test Example 2: root immersion of cucumber seedling, then inoculation with Aphis gossypii; conditions: 168 h; 500 ppm active ingredient; cucumber root part immersed in 5 ml; 30 Aphis gossypii inoculated one day after treatment; examined after further seven days
Description: A root part of a cucumber seedling (the first true leaf stage) from which soil had been washed off was immersed in 5 ml of each of the diluted solutions, and one day after treatment, on the cucumber leaf surface was inoculated with 30 Aphis gossypii (whole stage). After further seven days, the number of insect of living Aphis gossypii parasitized on the leaves of the cucumber was examined, and a control value was calculated according to the following equation: Control value (%)={1−(Cb×Tai)/(Cai×Tb))×100 wherein symbols represent as follows: Cb: the number of insects in a non-treated section before treatment, Cai: the number of insects in a non-treated section in observation, Tb: the number of insects in a treated-section before treatment, Tai: the number of insects in a treated-section in observation; wherein the non-treated section represents a section where the test diluted solution prepared by diluting the formulation without the present compound in Formulation Example 5 with the same amount of water as in the treated-section was used.

[3] = system: Nilaparvata lugens; experiment: Test Example 5: drench at foot of rice seedling, release of Nilaparvata lugens larvae; conditions: soil, 144 h; 500 ppm active ingredient; rice seedling drenched at its foot with 5 ml, kept 7 days; twenty third-fourth instar larvae of Nilaparvata lugens; examined after 6 days
Description: On the other hand, a rice seedling (2 weeks after sowing, the second leaf stage) planted in a plastic cup was drenched at its foot with 5 ml of each of the diluted solutions, and kept in a greenhouse of 25° C. for 7 days. Twenty third-fourth instar larvae of Nilaparvata lugens were released, and further kept in the greenhouse for 6 days, then the number of insect of living Nilaparvata lugens parasitized on the rice was examined, and a control value was calculated according to the following equation: Control value (%)={1−(Cb×Tai)/(Cai×Tb))×100 wherein symbols represent as follows: Cb: the number of insects in a non-treated section before treatment, Cai: the number of insects in a non-treated section in observation, Tb: the number of insects in a treated-section before treatment, Tai: the number of insects in a treated-section in observation; wherein the non-treated section represents a section where the test diluted solution prepared by diluting the formulation without the present compound in Formulation Example 5 with the same amount of water as in the treated-section was used.

[4] = system: Aphis gossypii; experiment: Test Example 1: spray on cucumber seedling inoculated with Aphis gossypii; conditions: topical, 144 h; 500 ppm active ingredient (Formulation Example 5 diluted with water); 20 ml sprayed on cucumber seedling with about 30 Aphis gossypii; six days after spraying
Description: On the other hand, on a cucumber seedling (the first true leaf stage) planted in a plastic cup was inoculated with about 30 Aphis gossypii, and leaving it for a day. Twenty ml of each of the above test spray solutions was sprayed on this seedling. Six days after spraying, the number of the surviving Aphis gossypii parasitized on the leaves of the cucumber was examined, and a control value was calculated according to the following equation: Control value (%)={1−(Cb×Tai)/(Cai×Tb))×100 wherein symbols represent as follows: Cb: the number of insects in a non-treated section before treatment, Cai: the number of insects in a non-treated section in observation, Tb: the number of insects in a treated-section before treatment, Tai: the number of insects in a treated-section in observation; wherein the non-treated section represents a section where the test spray solution prepared by diluting the formulation without the present compound in Formulation Example 5 with the same amount of water as in the treated-section was sprayed.

[5] = system: Bemisia tabaci; experiment: Test Example 6: spray on tomato seedling with Bemisia tabaci instar larvae; conditions: 168 h; 500 ppm active ingredient; 20 ml/cup sprayed on tomato seedling with hatched Bemisia tabaci instar larvae; after 7 days at 25° C.
Description: On the other hand, Bemisia tabaci adult was released on a tomato seedling (the third true leaf stage) planted in a polyethylene cup, and made to lay eggs for about 72 hours. The tomato seedling was kept in a greenhouse for 8 days. When instar larvae hatched from the eggs, the above test spray solution was sprayed in the amount of 20 ml/cup. The cup was kept in a greenhouse at 25° C. After the keeping for 7 days, the number of surviving instar larvae on the tomato leaves was examined, and a control value was calculated according to the following equation: Control value (%)={1−(Cb×Tai)/(Cai×Tb))×100 wherein symbols represent as follows: Cb: the number of insects in a non-treated section before treatment, Cai: the number of insects in a non-treated section in observation, Tb: the number of insects in a treated-section before treatment, Tai: the number of insects in a treated-section in observation; wherein the non-treated section represents a section where the test spray solution prepared by diluting the formulation without the present compound in Formulation Example 5 with the same amount of water as in the treated-section was sprayed.

[6] = 500 ppm active ingredient, rice seedling sprayed with 10 ml, third-fourth instar larvae of Nilaparvata lugens, after 6 days at 25° C.

Structure (SMILES)	pest or weed control at 500 ppm [1, 6] [%]	pest or weed control at 500 ppm [2] [%]	other results
CSc1ccccc1-c1nc2cc(C(F)(F)F)cnc2n1C [Present Compound 1, 3-methyl-2-(2-methylsulfanylphenyl)-6-trifluoromethyl-3H-imidazo[4,5-b]pyridine]	≥ 90	–	–
CC(C)Sc1ccccc1-c1nc2cc(C(F)(F)F)cnc2n1C [Present Compound 12, 2-(2-isopropylsulfanylphenyl)-3-methyl-6-trifluoromethyl-3H-imidazo[4,5-b]pyridine]	≥ 90	–	–
Cn1c(-c2ccccc2[S+]([O-])C(C)(C)C)nc2cc(C(F)(F)F)cnc21 (stereo not drawn) [Present Compound 16, 2-(2-tert-butylsulfinylphenyl)-3-methyl-6-trifluoromethyl-3H-imidazo[4,5-b]pyridine]	–	≥ 90	–
CCOCn1c(-c2ccccc2SCC)nc2cc(C(F)(F)F)cnc21 [Present Compound 33, 3-ethoxymethyl-2-(2-ethylsulfanylphenyl)-6-trifluoromethyl-3H-imidazo[4,5-b]pyridine]	–	≥ 90	–
CCOCn1c(-c2ccccc2SCC)nc2ncc(C(F)(F)F)cc21 [Present Compound 34, 1-ethoxymethyl-2-(2-ethylsulfanylphenyl)-6-trifluoromethyl-1H-imidazo[4,5-b]pyridine]	–	≥ 90	–
CCOCn1c(-c2ccccc2S(=O)(=O)CC)nc2cc(C(F)(F)F)cnc21 [Present Compound 36, 2-(2-ethylsulfonylphenyl)-3-ethoxymethyl-6-trifluoromethyl-3H-imidazo[4,5-b]pyridine]	–	≥ 90	–
CCS(=O)(=O)c1ccccc1-c1nc2cc(C(F)(F)F)cnc2n1COC [Present Compound 38, 2-(2-ethylsulfonylphenyl)-3-methoxymethyl-6-trifluoromethyl-3H-imidazo[4,5-b]pyridine]	–	–	pest or weed control at 500 ppm [3]: ≥ 90%
CC[S+]([O-])c1ccccc1-c1nc2cc(Br)cnc2n1C (stereo not drawn) [Present Compound 43, 6-bromo-2-(2-ethylsulfinylphenyl)-3-methyl-3H-imidazo[4,5-b]pyridine]	–	≥ 90	–
CC[S+]([O-])c1ccccc1-c1nc2cc(I)cnc2n1C (stereo not drawn) [Present Compound 46, 2-(2-ethylsulfinylphenyl)-6-iodo-3-methyl-3H-imidazo[4,5-b]pyridine]	≥ 90	≥ 90	pest or weed control at 500 ppm [4]: ≥ 90%
CC[S+]([O-])c1ccccc1-c1nc2cc(C#N)cnc2n1C (stereo not drawn) [Present Compound 49, 6-cyano-2-(2-ethylsulfinylphenyl)-3-methyl-3H-imidazo[4,5-b]pyridine]	–	–	pest or weed control at 500 ppm [5]: ≥ 90%
CC[S+]([O-])c1ccccc1-c1nc2cc(C(F)F)cnc2n1C (stereo not drawn) [Present Compound 53, 6-difluoromethyl-2-(2-ethylsulfinylphenyl)-3-methyl-3H-imidazo[4,5-b]pyridine]	–	≥ 90	pest or weed control at 500 ppm [4]: ≥ 90%
CCSc1ccccc1-c1nc2ncc(C(F)(F)F)cc2n1C [Present Compound 66, 2-(2-ethylsulfanylphenyl)-1-methyl-6-trifluoromethyl-1H-imidazo[4,5-b]pyridine]	–	≥ 90	pest or weed control at 500 ppm [4]: ≥ 90%
CCSc1ccccc1-c1nc2cc(C(F)(F)F)ccc2n1C [Present Compound 68, 2-(2-ethylsulfanylphenyl)-1-methyl-5-trifluoromethyl-1H-benzimidazole]	≥ 90	–	–
CC[S+]([O-])c1ccccc1-c1nc2cc(C(F)(F)F)ccc2n1C (stereo not drawn) [Present Compound 69, 2-(2-ethylsulfinylphenyl)-1-methyl-5-trifluoromethyl-1H-benzimidazole]	≥ 90	≥ 90	–
CCS(=O)(=O)c1ccccc1-c1nc2cc(C(F)(F)F)ccc2n1C [Present Compound 70, 2-(2-ethylsulfonylphenyl)-1-methyl-5-trifluoromethyl-1H-benzimidazole]	–	≥ 90	–
CC[S+]([O-])c1ccccc1-c1nc2cc(C(F)(F)F)cc(Cl)c2n1C (stereo not drawn) [Present Compound 72, 7-chloro-2-(2-ethylsulfinylphenyl)-1-methyl-5-trifluoromethyl-1H-benzimidazole]	–	–	pest or weed control at 500 ppm [4]: ≥ 90%
CC[S+]([O-])c1ccccc1-c1nc2cc(C(F)(F)F)cnc2o1 (stereo not drawn) [Present Compound 82, 2-(2-ethylsulfinylphenyl)-6-trifluoromethyloxazolo[5,4-b]pyridine]	–	≥ 90	–
CCS(=O)(=O)c1ccccc1-c1nc2cc(C(F)(F)F)cnc2o1 [Present Compound 83, 2-(2-ethylsulfonylphenyl)-6-trifluoromethyloxazolo[5,4-b]pyridine]	≥ 90	≥ 90	–
CSc1ccccc1-c1nc2cc(C(F)(F)F)ccc2s1 [Present Compound 84, 2-(2-methylsulfanylphenyl)-5-trifluoromethylbenzothiazole]	≥ 90	–	–
CCSc1ccccc1-c1nc2cc(C(F)(F)C(F)(F)C(F)(F)F)cnc2n1C [Present Compound 128, 2-(2-ethylsulfanyl-phenyl)-6-heptafluoropropyl-3-methyl-3H-imidazo[4,5-b]pyridine]	–	–	pest or weed control at 500 ppm ([1]; Nilaparvata lugens): ≥ 90%
CCSc1ccccc1-c1nc2ccc(C(F)(F)F)nc2n1C [Present Compound 151, 2-(2-ethylsulfanylphenyl)-3-methyl-5-trifluoromethyl-3H-imidazo[4,5-b]pyridine]	–	–	pest or weed control at 500 ppm [4]: ≥ 90%
CC[S+]([O-])c1ccccc1-c1nc2nc(C(F)(F)F)ccc2n1C (stereo not drawn) [compound 167, 2-(2-ethylsulfinylphenyl)-1-methyl-5-trifluoromethyl-1H-imidazo[4,5-b]pyridine]	–	≥ 90	–
CCSc1ccccc1-c1nc2cc(C(F)(F)F)cnc2s1 [compound 183, 2-(2-ethylsulfanylphenyl)-6-(trifluoromethyl)thiazolo[5,4-b]pyridine]	–	–	pest or weed control at 500 ppm [4]: ≥ 90%
CCS(=O)(=O)c1ccccc1-c1nc2cc(C(F)(F)F)cnc2s1 [compound 185, 2-(2-ethylsulfonylphenyl)-6-(trifluoromethyl)thiazolo[5,4-b]pyridine]	–	–	pest or weed control at 500 ppm [3]: ≥ 90%
CCS(=O)(=O)c1ccccc1-c1nc2cc([S+]([O-])C(F)(F)F)cnc2n1C (stereo not drawn) [compound 214, 2-(2-ethylsulfonylphenyl)-6-trifluoromethylsulfinyl-3-methyl-3H-imidazo[4,5-b]pyridine]	–	–	pest or weed control at 500 ppm [3]: ≥ 90%
CCSc1cc(Br)ccc1-c1nc2cc(C(F)(F)F)cnc2n1C [compound 238, 2-(4-bromo-2-ethylsulfanylphenyl)-3-methyl-6-trifluoromethyl-3H-imidazo[4,5-b]pyridine]	≥ 90	–	–
CCSc1cc(C(F)(F)F)ccc1-c1nc2cc(S(F)(F)(F)(F)F)ccc2n1C [compound 314, 2-(2-ethylsulfanyl-4-trifluoromethyl-phenyl)-1-methyl-5-(pentafluorosulphur)-1H-benzimidazole]	≥ 90	–	–
